Where “and” joins values, the source holds several entries; their conditions need not be identical. Equal values may be shown once.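 Results reflect a 48-hour exposure of cells in 96-well plates to compound at five concentrations. Here, GI50 denotes the concentration required for 50% inhibition of growth. The concentration for full growth arrest is given as TGI.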
Tests used:
Test in all cases: inhibition of tumour cell growth, NCI panel, 48 h
COLO 205 colon = tested on: COLO 205 colon
HCT-116 colon = tested on: HCT-116 colon
HCT-15 colon = tested on: HCT-15 colon
IGROV1 ovarian = tested on: IGROV1 ovarian
NCI-H23 lung = tested on: NCI-H23 lung
U251 CNS = tested on: U251 CNS
UACC-62 melanoma = tested on: UACC-62 melanoma
UO-31 renal = tested on: UO-31 renal
ACHN renal = tested on: ACHN renal
T-47D breast = tested on: T-47D breast

| Compound | TGI (COLO 205 colon) | TGI (HCT-116 colon) [µM] | TGI (HCT-15 colon) [µM] | TGI (IGROV1 ovarian) [µM] | TGI (NCI-H23 lung) [µM] | TGI (U251 CNS) [µM] | TGI (UACC-62 melanoma) [µM] | TGI (UO-31 renal) [µM] | TGI (ACHN renal) [µM] | GI50 (ACHN renal) [µM] | GI50 (COLO 205 colon) | GI50 (HCT-116 colon) [µM] | GI50 (HCT-15 colon) [µM] | GI50 (IGROV1 ovarian) | GI50 (NCI-H23 lung) [µM] | GI50 (U251 CNS) | GI50 (UACC-62 melanoma) | GI50 (UO-31 renal) [µM] | GI50 (T-47D breast) [µM] | TGI (T-47D breast) [µM] |
| --- | --- | --- | --- | --- | --- | --- | --- | --- | --- | --- | --- | --- | --- | --- | --- | --- | --- | --- | --- | --- |
| CCCCCCCC(=O)NCC(O)CNC(=O)CCCCCCC | > 100 µM | > 100 | > 100 | > 100 | > 100 | > 100 | > 100 | > 100 | – | – | – | – | – | – | – | – | – | – | – | – |
| O=C(O)C1=CCCc2ccc3ccccc3c21 | > 100 µM | > 100 | > 100 | > 100 | > 100 | > 100 | > 100 | > 100 | > 100 | – | – | – | – | – | – | – | – | – | – | – |
| COc1cccc(C2C3=C(COC3=O)N(CCO)c3cc(OC)ccc32)c1 (stereo not given) | 0.755 µM | – | > 100 | > 100 | > 100 | > 100 | > 100 | > 100 | > 100 | 0.23 | 0.107 µM | 0.107 | 0.121 | 0.305 µM | 0.172 | 0.0992 µM | 0.0488 µM | 0.187 | – | – |
| CSc1cccc(-n2c3nc(=O)n(C)c(=O)c-3nc3ccccc32)c1 | 11 µM | – | 23.3 | 36 | 70.3 | 23.3 | 6.14 | 32.9 | 13.2 | – | – | – | – | – | – | – | – | – | – | – |
| CC(=O)O[C@@]12CO[C@@H]1C[C@H](O)[C@@]1(C)C(=O)[C@H](O)C3=C(C)[C@@H](OC(=O)[C@H](O)[C@@H](NC(=O)OC(C)(C)C)c4ccccc4)C[C@@](O)([C@@H](OC(=O)c4ccccc4)[C@H]21)C3(C)C | 0.059 µM and 0.00717 µM | > 100 | 17.1 | > 79 | > 67.2 | 28.3 | – | 18 | 67.1 | 0.156 | 0.0023 µM and 0.000963 µM | 0.00203 | 0.0656 | 0.0593 µM and 0.0198 µM | 0.0192 | 0.00244 µM and 0.00364 µM | 0.0141 µM and 0.112 µM | 0.247 | – | – |
| CCN(CC)CCCn1cnc2ncccc2c1=O | > 100 µM | > 100 | – | > 100 | > 100 | > 100 | > 100 | > 100 | > 100 | – | – | – | – | – | – | – | – | – | – | – |
| C/C=C/C1=C(Cl)C(=O)[C@@H](Cl)[C@@]1(O)C(=O)OC | 3.22 µM | 11.7 | 4.43 | 14.1 | 10.1 | 18.8 | 4.18 | 10.2 | 6.59 | – | – | – | – | – | – | – | – | – | – | – |
| COc1cc2c3c(n(CCCN(CCN)CCCn4c5c(c6cc(OC)c(OC)cc6c4=O)C(=O)c4cc6c(cc4-5)OCO6)c(=O)c2cc1OC)-c1cc2c(cc1C3=O)OCO2 | > 57 µM | 3.25 | > 100 | – | 5.24 | 5.99 | 0.858 | 8.18 | 3.02 | 0.376 | 0.645 µM | 0.837 | 8.43 | – | 0.984 | 0.354 µM | 0.24 µM | 0.892 | 0.457 | > 100 |
| O=C(CCC(=O)Nc1cccc(Cl)c1)CC(=O)c1ccc(F)cc1 | > 100 µM | > 100 | > 100 | – | > 100 | – | > 100 | > 100 | > 100 | – | – | – | – | – | – | – | – | – | – | – |
| [Cl][Sn]([Cl])([c]1ccccc1)[c]1ccccc1 | – | – | 23.2 | 38.3 | 24 | 28.6 | 9.08 | 33.5 | 27.5 | 14.4 | – | – | 10.3 | 19.3 µM | 10.4 | 13.4 µM | 2.87 µM | 19.4 | – | – |
| CN(C)CCN(C)CC1COC(C)(C)O1 (stereo not given) | > 100 µM | > 100 | – | > 100 | > 100 | > 100 | > 100 | > 100 | > 100 | – | – | – | – | – | – | – | – | – | – | – |
| C/C(=N\NC(N)=S)c1cc(C)c(C)cc1C | > 100 µM | > 100 | > 100 | > 100 | > 100 | > 100 | > 100 | > 100 | > 100 | – | – | – | – | – | – | – | – | – | – | – |
| CC1=C(/C=C/C(=O)O)C(C)(C)CCC1 | > 100 µM | > 100 | > 100 | > 100 | > 100 | > 100 | > 100 | > 100 | > 100 | – | – | – | – | – | – | – | – | – | – | – |
| Cc1oc2c(C)c3oc(=O)cc(C)c3cc2c1CNC(=O)[C@@H]1OCCOCCOCCOCCOCCOC1C(=O)O (stereo not given in full) | > 100 µM | > 100 | > 100 | > 100 | > 100 | > 100 | > 100 | > 100 | > 100 | – | – | – | – | – | – | – | – | – | – | – |
